Assay results reported in patent EP4080216A1, “METHODS DETERMINING THE POTENTIAL OF DRUGS FOR TREATING BACTERIAL INFECTIONS AND COMPOSITION FOR TREATING BACTERIAL INFECTIONS” (priority 2021, dated 2022).
“Also recorded” adds a separate entry of the source.

Tests used:
[1] = tested on: Hox8b-derived murine dendritic cells; assay: adhesion assay: adhesion of dendritic cells infected with type I piliated (ON) bacteria, Hoechst fluorescence plate reader and brightfield images; assay type: cell-based; conditions: ON bacteria at multiplicity of infection of 10, 18 to 20 hours post infection
Experimental: In one embodiment, the dendritic cells are dendritic cells from any mammalian species such as human, primate, mouse, cow, pig, dog, goat, rabbit, rat and cow. In one embodiment, the dendritic cells are human or murine dendritic cells. In another embodiment, the dendritic cells are established dendritic cell lines. In another embodiment, the dendritic cells are human dendritic cell lines such as Thp-1, HL-60, MUTZ-3, U937, KG-1 and PDMC05. In one embodiment, the dendritic cells are cultured in regular cell culture dishes or cell culture plates known to the skilled person in the art. In another embodiment, the cell culture dishes or cell culture plates are treated with different extracellular matrix components such as fibronectin or fibrinogen or combinations thereof. In another embodiment, genetically modified dendritic cells are used. In a preferred embodiment, the genetically modified dendritic cells express a fluorescent marker. In a particularly preferred embodiment, the genetically modified dendritic cells have a fluorescently labelled actin cytoskeleton. In a particularly preferred embodiment, the genetically modified dendritic cells express LifeAct®-GFP and therefore, have a fluorescently labelled actin cytoskeleton. In one embodiment, the dendritic cells are infected with the bacteria at a multiplicity of infection of 1-100 (1-100 bacteria per 1 dendritic cell). The skilled person is aware that infected dendritic cells are activated dendritic cells. In another embodiment, the dendritic cells are infected with the bacteria at a multiplicity of infection of 1-30 (1-30 bacteria per 1 dendritic cell). In a particularly preferred embodiment, the dendritic cells are infected with the bacteria at a multiplicity of infection of 10 (10 bacteria per 1 dendritic cell). In one embodiment, the infection causing type I piliated gram-negative bacteria are causing neonatal meningitis. In another embodiment, the infection causing type I piliated gram-negative bacteria are causing inflammatory bowel diseases such as Crohn's disease or ulcerative colitis. In one embodiment, the infection causing type I piliated gram-negative bacteria causes Crohn's disease. In another embodiment, the infection causing type I piliated gram-negative bacteria causes ulcerative colitis. In yet another embodiment, the infection causing type I piliated gram-negative bacteria causes gastrointestinal disorders or gastrointestinal diseases such as salmonellosis. In a preferred embodiment, the infection causing type I piliated gram-negative bacteria cause urinary tract infections. In a particularly preferred embodiment, the type I piliated gram-negative bacteria causing urinary tract infections are uropathogenic E. coli. […]

CD14 = assay: bead assay: binding of fluorescent FimH-expressing (ON) bacteria to CD14-coupled magnetic beads, flow cytometry; design: species or system murine
Experimental: In one embodiment, the CD14 protein is a recombinant chimeric protein. In a preferred embodiment, the CD14 protein comprises the murine N-terminal of CD14 which is bound to protein A on the magnetic beads via the Fc tail. In another embodiment, the magnetic beads are pre-coated with protein A. In one preferred embodiment, a fluorescent marker is stably integrated into the DNA of the bacteria. The stable integration of a fluorescent marker into the bacteria DNA is performed by any conventional means known to the skilled person such as by transforming the bacteria with a conditional-replication, integration, and modular (CRIM) plasmid. In another embodiment, the fluorescent marker is transiently integrated into the DNA of the bacteria. The transient integration of a fluorescent marker into the bacteria DNA is performed by any conventional means known to the skilled person such as by transforming the bacteria with a plasmid harbouring the fluorescent marker. In another embodiment, the DNA is visualized by a fluorescent marker added after step f). In a preferred embodiment, the fluorescent marker added after step f) is a fluorescent dye. In the latter embodiment, the fluorescent marker or fluorescent dye is thiazole orange, Hoechst 3342, Hoechst 3358, or carboxyfluorescein diacetate (CFDA) and its derivatives. In one embodiment, the infection causing type I piliated gram-negative bacteria are causing neonatal meningitis. In another embodiment, the infection causing type I piliated gram-negative bacteria are causing inflammatory bowel diseases such as Crohn's disease or ulcerative colitis. In one embodiment, the infection causing type I piliated gram-negative bacteria causes Crohn's disease. In another embodiment, the infection causing type I piliated gram-negative bacteria causes ulcerative colitis. In yet another embodiment, the infection causing type I piliated gram-negative bacteria causes gastrointestinal disorders or gastrointestinal diseases such as salmonellosis. In a preferred embodiment, the infection causing type I piliated gram-negative bacteria cause urinary tract infections. In a particularly preferred embodiment, the type I piliated gram-negative bacteria causing urinary tract infections are uropathogenic E. coli. In one embodiment, the incubation of the type I piliated gram-negative bacteria with the CD14-coupled magnetic beads and the added drug or compound lasts between ten minutes and six hours. In one embodiment, the incubation takes between 30 minutes and three hours. In a particularly preferred embodiment, the incubation takes between 45 and 90 minutes. In one embodiment, the added drug or compound is an inhibitor, antibody or antibiotic. […]

Compound: CNC(=O)c1cc(C(=O)NC)cc(-c2ccc(O[C@H]3O[C@H](CO)[C@@H](O)[C@H](O)[C@@H]3O)c(C)c2)c1 [M4284]
- adhesion of dendritic cells ([1]; 10 µM): resulted in decreased adhesion; also recorded: partially able to do so
- inhibit binding of ON bacteria to CD14-coupled beads (CD14; 10 µM, UPEC ON bacteria, one hour at 4 °C): prevented binding; also recorded: able to inhibit binding

Compound: Cc1c2c(c(O)c3c(O)cccc13)C(=O)[C@]1(O)C(=O)C(C(N)=O)=C(O)[C@@H](N(C)C)[C@@H]1C2 [anhydrotetracycline]
- adhesion of dendritic cells ([1]; concentration not given): increased adhesion even further; also recorded: significantly increased adhesion
- prevent binding of ON bacteria to CD14-coupled beads (CD14; sub-minimal inhibitory concentrations, ON bacteria): not able to prevent binding

Compound: D-mannose
- adhesion of dendritic cells ([1]; 175 µM): did not decrease adhesion
- adhesion of dendritic cells ([1]; 1 mM): resulted in decreased adhesion; also recorded: partially able to do so
- block binding of ON bacteria to CD14 (CD14; 175 µM, UPEC ON bacteria, one hour at 4 °C): not sufficient to block binding
- inhibit binding of ON bacteria to CD14-coupled beads (CD14; 1 mM, UPEC ON bacteria, one hour at 4 °C): prevented binding; also recorded: able to inhibit binding
